The structures appear in SMILES notation.

The subject of one data set is A2780 cells. The data set is described as follows: MR imaging of cell pellets at 7 T. Format: cell-based. Particulars: A2780, 7 T, 6 h incubation; cisplatin 7.5 μM, 1 100 μM, GP1 30 μM, GP2 60 μM.
A short description of data set [1]: Reduction by 5 mM GSH / 5 mM ascorbate at 37 °C (HPLC-MS). In kind it is physicochemical. As to the method: Under reducing conditions both agents rapidly converted to a monomeric Gd(III) complex and a Pt(II) drug. Each agent was incubated with 5 mM GSH and 5 mM ascorbate at 37 °C to mimic intracellular conditions. […] This is not surprising, as ascorbate is a weaker reducing agent. […]
solution. These capillaries were imaged using a Bruker PharmaScan 7 T MR imaging spectrometer (Bruker BioSpin, Billerica, MA, USA). T1 relaxation times were measured using a rapid-acquisition rapid-echo (RARE-VTR) T1-map pulse sequence with static TE (10 ms) and […]
Stability of GP1 and GP2 in various aqueous media. […] An aliquot of each was dissolved in H2O and analyzed by HPLC-MS using an Atlantis C18 column (4.6 × 250 mm, 5 μm) and the following method: MeCN held at 0% for 3 min followed by a 15 min ramp to 100% MeCN (GP1 retention time: 10.9 min, GP2 retention time: 11.6 min). Aliquots of both were additionally dissolved in PBS, MEM, RPMI-1640, pH 5 H2O, PBS with 10 units/mL porcine liver esterase, 5 mM glutathione, and 5 mM sodium ascorbate, incubated in a shaker at 37 °C, and were analyzed by HPLC-MS at different time points using the same method. At each time point, the area of the peak of GP1 or GP2 was determined by integration and compared to the area of the peaks in H2O. […]

For data set [2], the system named is porcine liver esterase (PLE). The data set is described as follows: Stability in porcine liver esterase in PBS (HPLC-MS). Format: in vitro ADME. Conditions: PBS with 10 units/mL porcine liver esterase, 37 °C. As to the method: To ensure both agents remain stable in aqueous media under various conditions, they were dissolved in PBS, two types of cell culture media (MEM and RPMI-1640), pH 5 H2O, and porcine live esterase (PLE) in PBS and monitored over time by HPLC-MS. […]
Stability of GP1 and GP2 in various aqueous media. Aliquots of GP1 and GP2 were prepared from a stock with known mass checked by ICP-MS. An aliquot of each was dissolved in H2O and analyzed by HPLC-MS using an Atlantis C18 column (4.6 × 250 mm, 5 μm) and the following method: MeCN held at 0% for 3 min followed by a 15 min ramp to 100% MeCN (GP1 retention time: 10.9 min, GP2 retention time: 11.6 min). Aliquots of both were additionally dissolved in PBS, MEM, RPMI-1640, pH 5 H2O, PBS with 10 units/mL porcine liver esterase, 5 mM glutathione, and 5 mM sodium ascorbate, incubated in a shaker at 37 °C, and were analyzed by HPLC-MS at different time points using the same method. At each time point, the area of the peak of GP1 or GP2 was determined by integration and compared to the area of the peaks in […]

Turning to `[NH2][Pt]([NH2])([OH])([Cl])([Cl])[O]C(=O)CCCCCN1CCN2CCN3CCN(CC1)CC(=O)[O][Gd]([O]C(=O)C2)[O]C(=O)C3` [GP1], in the data set with A2780 cells, the “T1 of cell pellet” value was determined as 1708 ± 27 ms and the “Δ R1 (increase in R1 vs untreated control)” value is reported as 36%. The “Reduction by GSH” value in data set [1] (5 mM GSH, in less than an hour) is on record as no less than 94%. Further, in data set [1] (5 mM ascorbate, compared to GSH), the Reduction by ascorbate entry was “reduced by ascorbate, albeit it at a much slower rate”. Moreover, the “Decrease in stability in presence of PLE” value in data set [2] is listed as roughly 10%.

Values taken from publication PMC8157322, “Gd(III)–Pt(IV) theranostic contrast agents for tandem MR imaging and chemotherapy” (Chemical Science, 2020).
